Columns and labels:
[1] = molecular target: T1, Human CD73 (amino acid residues 27-549) (Homo sapiens, UniProt P21589); assay: CD73 enzymatic assay (luciferase-based indirect assay, CellTiter-Glo); type: biochemical; conditions: 0.4 nM CD73, 150 μM AMP, 1 hour at room temperature
T1 construct: Human CD73 (amino acid residues 27-549); His tag (N); made in house; host or cells: E. coli
T1 sequence (P21589 27-549): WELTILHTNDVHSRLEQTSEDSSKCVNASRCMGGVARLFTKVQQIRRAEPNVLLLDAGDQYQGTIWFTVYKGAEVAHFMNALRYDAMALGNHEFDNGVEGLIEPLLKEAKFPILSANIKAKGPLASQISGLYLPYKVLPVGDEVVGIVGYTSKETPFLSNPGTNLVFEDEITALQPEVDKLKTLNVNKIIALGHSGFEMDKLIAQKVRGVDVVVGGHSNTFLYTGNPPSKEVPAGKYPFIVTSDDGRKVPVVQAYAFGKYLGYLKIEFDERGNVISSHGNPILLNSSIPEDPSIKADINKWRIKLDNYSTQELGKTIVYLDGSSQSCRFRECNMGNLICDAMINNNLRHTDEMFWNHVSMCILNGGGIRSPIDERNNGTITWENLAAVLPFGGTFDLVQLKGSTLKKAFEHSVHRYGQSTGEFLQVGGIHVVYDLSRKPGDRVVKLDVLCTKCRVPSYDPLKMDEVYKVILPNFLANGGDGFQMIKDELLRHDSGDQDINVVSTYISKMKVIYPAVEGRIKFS
Summary of the method: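 Residual AMP inhibits luciferase, so luminescence reports CD73 turnover; read with CellTiter-Glo 2.0 plus 1 μM final ATP, 30 min. Reaction used 0.4 nM N-His CD73 (27-549, E. coli), 150 μM AMP, HEPES pH 7.4 with Tween 20, 1 h at room temperature. IC50 fitted by nonlinear regression.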

[2] = molecular target: T2, human CD73 (Homo sapiens, UniProt P21589); assay: Inhibitor activity against CD73 in cell based assay (CD73 expressing CHO-K1 cells); conditions: CHO-K1 cells expressing human CD73, 150 μM AMP, 4 hours of incubation; read-out: CHO-K1 CELL VARIANT: CD73 IC50
T2 construct: expressed in transfected cells
T2 sequence (P21589 27-549): T1 sequence (P21589 27-549)
Summary of the method: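 Residual supernatant AMP was quantified via CellTiter-Glo luminescence (1 μM ATP added, 30 min, room temperature) after a 4 h exposure of human CD73-expressing CHO-K1 cells to 150 μM AMP plus compound, top final 10 μM, 8 points. IC50 came from nonlinear regression of percent inhibition.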

Compound	IC50 [1]	IC50 [2]
O=C(N[C@H]1CC[C@H](NC(=O)C2CCC2)CC1)O[C@@H]1CCN(c2cn[nH]c(=O)c2Cl)C1 [P-0258, (R)-1-(5-chloro-6-oxo-1,6-dihydropyridazin-4-yl)pyrrolidin-3-yl ((1r,4R)-4-(cyclobutanecarboxamido)cyclohexyl)carbamate]	0.001 to 10 µM	0.001 to 10 µM
O=C(N[C@H]1CC[C@H](NC(=O)C2CCCC2)CC1)O[C@@H]1CCN(c2cn[nH]c(=O)c2Cl)C1 [P-0259, (R)-1-(5-chloro-6-oxo-1,6-dihydropyridazin-4-yl)pyrrolidin-3-yl ((1r,4R)-4-(cyclopentanecarboxamido)cyclohexyl)carbamate]	0.001 to 10 µM	0.001 to 10 µM
O=C(N[C@H]1CC[C@H](NC(=O)c2ccccn2)CC1)O[C@@H]1CCN(c2cn[nH]c(=O)c2Cl)C1 [P-0260, (R)-1-(5-chloro-6-oxo-1,6-dihydropyridazin-4-yl)pyrrolidin-3-yl ((1r,4R)-4-(picolinamido)cyclohexyl) carbamate]	0.001 to 10 µM	0.001 to 10 µM
N#Cc1ccc(C(=O)N[C@H]2CC[C@H](NC(=O)O[C@@H]3CCN(c4cn[nH]c(=O)c4Cl)C3)CC2)cc1 [P-0261, (R)-1-(5-chloro-6-oxo-1,6-dihydropyridazin-4-yl)pyrrolidin-3-yl ((1r,4R)-4-(4-cyanobenzamido)cyclohexyl) carbamate]	0.001 to 10 µM	0.001 to 10 µM
CC(C)(C)C(=O)N[C@H]1CC[C@H](NC(=O)O[C@@H]2CCN(c3cn[nH]c(=O)c3Cl)C2)CC1 [P-0262, (R)-1-(5-chloro-6-oxo-1,6-dihydropyridazin-4-yl)pyrrolidin-3-yl ((1r,4R)-4-pivalamidocyclohexyl) carbamate]	0.001 to 10 µM	0.001 to 10 µM
CC(C)C(=O)N[C@H]1CC[C@H](NC(=O)O[C@@H]2CCN(c3cn[nH]c(=O)c3Cl)C2)CC1 [P-0263]	0.001 to 10 µM	10 to 100 µM
O=C(N[C@H]1CC[C@H](NC(=O)c2ccncc2)CC1)O[C@@H]1CCN(c2cn[nH]c(=O)c2Cl)C1 [P-0264, (R)-1-(5-chloro-6-oxo-1,6-dihydropyridazin-4-yl)pyrrolidin-3-yl ((1r,4R)-4-(isonicotinamido)cyclohexyl) carbamate]	0.001 to 10 µM	0.001 to 10 µM
O=C(N[C@H]1CC[C@H](NC(=O)c2ccc(Cl)cc2)CC1)O[C@@H]1CCN(c2cn[nH]c(=O)c2Cl)C1 [P-0265, (R)-1-(5-chloro-6-oxo-1,6-dihydropyridazin-4-yl)pyrrolidin-3-yl ((1r,4R)-4-(4-chlorobenzamido)cyclohexyl) carbamate]	0.001 to 10 µM	0.001 to 10 µM
O=C(N[C@H]1CC[C@H](NC(=O)c2ccccc2Cl)CC1)O[C@@H]1CCN(c2cn[nH]c(=O)c2Cl)C1 [P-0266, (R)-1-(5-chloro-6-oxo-1,6-dihydropyridazin-4-yl)pyrrolidin-3-yl ((1r,4R)-4-(2-chlorobenzamido)cyclohexyl) carbamate]	0.001 to 10 µM	0.001 to 10 µM
O=C(N[C@H]1CC[C@H](NC(=O)c2c(F)cccc2F)CC1)O[C@@H]1CCN(c2cn[nH]c(=O)c2Cl)C1 [P-0267, (R)-1-(5-chloro-6-oxo-1,6-dihydropyridazin-4-yl)pyrrolidin-3-yl ((1r,4R)-4-(2,6-difluorobenzamido)cyclohexyl) carbamate]	0.001 to 10 µM	0.001 to 10 µM
Cc1cccc(F)c1C(=O)N[C@H]1CC[C@H](NC(=O)O[C@@H]2CCN(c3cn[nH]c(=O)c3Cl)C2)CC1 [P-0268, (R)-1-(5-chloro-6-oxo-1,6-dihydropyridazin-4-yl)pyrrolidin-3-yl ((1r,4R)-4-(2-fluoro-6-methylbenzamido)cyclohexyl) carbamate]	0.001 to 10 µM	0.001 to 10 µM
CCN(CC)CC(=O)N[C@H]1CC[C@H](NC(=O)O[C@@H]2CCN(c3cn[nH]c(=O)c3Cl)C2)CC1 [P-0269, (R)-1-(5-chloro-6-oxo-1,6-dihydropyridazin-4-yl)pyrrolidin-3-yl ((1r,4R)-4-(2-(diethylamino)acetamido)cyclohexyl)carbamate]	0.001 to 10 µM	0.001 to 10 µM
O=C(CN1CCOCC1)N[C@H]1CC[C@H](NC(=O)O[C@@H]2CCN(c3cn[nH]c(=O)c3Cl)C2)CC1 [P-0270, (R)-1-(5-chloro-6-oxo-1,6-dihydropyridazin-4-yl)pyrrolidin-3-yl ((1r,4R)-4-(2-morpholinoacetamido)cyclohexyl)carbamate]	0.001 to 10 µM	0.001 to 10 µM
O=C(NC1CC1)N[C@H]1CC[C@H](NC(=O)O[C@@H]2CCN(c3cn[nH]c(=O)c3Cl)C2)CC1 [P-0271, (R)-1-(5-chloro-6-oxo-1,6-dihydropyridazin-4-yl)pyrrolidin-3-yl ((1r,4R)-4-(3-cyclopropylureido)cyclohexyl) carbamate]	0.001 to 10 µM	0.001 to 10 µM
O=C(Nc1ccc(Cl)cc1)N[C@H]1CC[C@H](NC(=O)O[C@@H]2CCN(c3cn[nH]c(=O)c3Cl)C2)CC1 [P-0272, (R)-1-(5-chloro-6-oxo-1,6-dihydropyridazin-4-yl)pyrrolidin-3-yl ((1r,4R)-4-(3-(4-chlorophenyl)ureido)cyclohexyl)carbamate]	0.001 to 10 µM	0.001 to 10 µM
C[C@]1(O)CC[C@@H](NC(=O)O[C@@H]2CCN(c3cn[nH]c(=O)c3Cl)C2)CC1 [P-0273, (R)-1-(5-chloro-6-oxo-1,6-dihydropyridazin-4-yl)pyrrolidin-3-yl ((1s,4S)-4-hydroxy-4-methylcyclohexyl)carbamate]	0.001 to 10 µM	0.001 to 10 µM
O=C(N[C@H]1CC[C@@H](O)CC1)O[C@@H]1CCN(c2cn[nH]c(=O)c2Cl)C1 [P-0274, (R)-1-(5-chloro-6-oxo-1,6-dihydropyridazin-4-yl)pyrrolidin-3-yl ((1s,4S)-4-hydroxycyclohexyl)carbamate]	0.001 to 10 µM	0.001 to 10 µM
N#C[C@H]1CC[C@H](NC(=O)O[C@@H]2CCN(c3cn[nH]c(=O)c3Cl)C2)CC1 [P-0275, (R)-1-(5-chloro-6-oxo-1,6-dihydropyridazin-4-yl)pyrrolidin-3-yl ((1r,4R)-4-cyanocyclohexyl)carbamate]	0.001 to 10 µM	0.001 to 10 µM
O=C(NC1CCC2(CC1)CC2)O[C@@H]1CCN(c2cn[nH]c(=O)c2Cl)C1 [P-0276, (R)-1-(5-chloro-6-oxo-1,6-dihydropyridazin-4-yl)pyrrolidin-3-yl spiro[2.5]octan-6-ylcarbamate]	0.001 to 10 µM	0.001 to 10 µM
O=C(N[C@H]1CC[C@H](F)CC1)O[C@@H]1CCN(c2cn[nH]c(=O)c2Cl)C1 [P-0277, (R)-1-(5-chloro-6-oxo-1,6-dihydropyridazin-4-yl)pyrrolidin-3-yl ((1r,4R)-4-fluorocyclohexyl)carbamate]	0.001 to 10 µM	0.001 to 10 µM
CC1(C)CCCC(NC(=O)O[C@@H]2CCN(c3cn[nH]c(=O)c3Cl)C2)C1 (stereo partly drawn) [P-0278, (R)-1-(5-chloro-6-oxo-1,6-dihydropyridazin-4-yl)pyrrolidin-3-yl (3,3-dimethylcyclohexyl)carbamate]	0.001 to 10 µM	0.001 to 10 µM
C[C@H]1CCCC[C@H]1NC(=O)O[C@@H]1CCN(c2cn[nH]c(=O)c2Cl)C1 [P-0279, (R)-1-(5-chloro-6-oxo-1,6-dihydropyridazin-4-yl)pyrrolidin-3-yl ((1R,2S)-2-methylcyclohexyl)carbamate]	0.001 to 10 µM	0.001 to 10 µM
